Tests used:
Type in all cases: in vivo, human
lupus nephritis [1] = experiment: Predictability from early reduction in UPCR or C3/C4 normalization combined at 12 weeks (Tables 13-17)
Excerpt: PR is defined as at least 50% reduction in proteinuria (i.e. UPCR).
Sensitivity is defined as the probability that a subject showing PR at 48 weeks would have shown a favorable result with regard to the marker at the designated early time point. In the tables below, this is the ratio of the number of subjects with favorable marker results (early drop or normalization) to the total subjects with 48 week PR.
Specificity is defined as the probability that a subject not showing PR at 48 weeks would have shown an unfavorable result with regard to the marker at the designated early time point. In the tables below, this is the ratio of the number of subjects with unfavorable marker results (no early drop or no normalization) to the total subjects with no 48 week PR.
Positive predictive value is defined as the probability that a subject showing a favorable result with respect to the marker at an earlier time point would show PR at 48 weeks. In the tables below, this is the ratio of the number of subjects with favorable marker results who have 48 week PR to those with favorable marker results (early reduction or yes column).
Negative predictive value is defined as the probability that a subject showing an unfavorable result with respect to the marker at an earlier time point would not show PR at 48 weeks. In the tables below, this is the ratio of the number of subjects with unfavorable marker results who have no PR at 48 weeks to the total subjects with unfavorable marker results (no early reduction or no column). […]

lupus nephritis [2] = experiment: Low dosage protocol (15.8 mg or 7.9 mg BID)
lupus nephritis [3] = experiment: 48 week study of LN treatment: complete and partial remission; details: for patients showing complete remission (CR) / patients showing partial remission (PR): 24 weeks
Description: The study was conducted over a period of 48 weeks and safety was evaluated at 24 weeks.
Subjects were screened prior to admission to the study by (a) determining that the urine protein creatinine ratio (UPCR) as >1.5 mg/mg as measured by first morning void, and (b) that the eGFR as measured by Chronic Kidney Disease Epidemiology Collaboration equation (CKD-EP1) of >45 ml/min/1.73 m^2. Subjects were assessed after 24 weeks and 48 weeks as well as a subsequent evaluation at 50 weeks.
PR is a composite end-point that includes safety and efficacy: UPCR reduction of 50% from baseline and no use of rescue medication

[4] = Early 30% reduction in UPCR or C3/C4 normalization, Week 48, 39.5 mg BID, number of patients
[5] = Early 35% reduction in UPCR or C3/C4 normalization, Week 12, 23.7 mg BID, number of patients
[6] = Early 35% reduction in UPCR or C3/C4 normalization, Week 12, 39.5 mg BID, number of patients
[7] = Early 35% reduction in UPCR or C3/C4 normalization, Week 24, 23.7 mg BID, number of patients
[8] = Early 35% reduction in UPCR or C3/C4 normalization, Week 48, 23.7 mg BID, number of patients
[9] = Early 35% reduction in UPCR or C3/C4 normalization, Week 48, 39.5 mg BID, number of patients
[10] = early 15% reduction in UPCR or C3/C4 normalization, week 12, 23.7 mg BID
[11] = early 15% reduction in UPCR or C3/C4 normalization, week 12, 39.5 mg BID
[12] = early 15% reduction in UPCR or C3/C4 normalization, week 24, 23.7 mg BID
[13] = early 15% reduction in UPCR or C3/C4 normalization, week 24, 39.5 mg BID
[14] = early 15% reduction in UPCR or C3/C4 normalization, week 48, 23.7 mg BID
[15] = early 15% reduction in UPCR or C3/C4 normalization, week 48, 39.5 mg BID
[16] = early 20% reduction in UPCR or C3/C4 normalization, week 12, 23.7 mg BID
[17] = early 20% reduction in UPCR or C3/C4 normalization, week 12, 39.5 mg BID
[18] = early 20% reduction in UPCR or C3/C4 normalization, week 24, 23.7 mg BID
[19] = early 20% reduction in UPCR or C3/C4 normalization, week 24, 39.5 mg BID
[20] = early 20% reduction in UPCR or C3/C4 normalization, week 48, 23.7 mg BID
[21] = early 20% reduction in UPCR or C3/C4 normalization, week 48, 39.5 mg BID
[22] = high dosage 39.5 mg BID with MMF and corticosteroids
[23] = low dosage 23.7 mg BID with MMF and corticosteroids

C=C/C=C/C[C@@H](C)[C@@H](O)[C@H]1C(=O)N[C@@H](CC)C(=O)N(C)CC(=O)N(C)[C@@H](CC(C)C)C(=O)N[C@@H](C(C)C)C(=O)N(C)[C@@H](CC(C)C)C(=O)N[C@@H](C)C(=O)N[C@H](C)C(=O)N(C)[C@@H](CC(C)C)C(=O)N(C)[C@@H](CC(C)C)C(=O)N(C)[C@@H](C(C)C)C(=O)N1C [voclosporin]
No Week 48 Partial Remission, Early Drop or Normal (lupus nephritis [1]; [4]): 8 | No Week 48 Partial Remission, No Early Drop or Normal (lupus nephritis [1]; [4]): 8 | Early Drop or Normal No (lupus nephritis [1]; [5]): 9 | Week 48 Partial Remission, No Early Drop or Normal (lupus nephritis [1]; [5]): 4 | Early Drop or Normal No (lupus nephritis [1]; [6]): 9 | No Week 48 Partial Remission, No Early Drop or Normal (lupus nephritis [1]; [6]): 3 | Early Drop or Normal No (lupus nephritis [1]; [7]): 4 | No Week 48 Partial Remission, Early Drop or Normal (lupus nephritis [1]; [7]): 10 | No Week 48 Partial Remission, No Early Drop or Normal (lupus nephritis [1]; [7]): 4 | Early Drop or Normal No (lupus nephritis [1]; Early 35% reduction in UPCR or C3/C4 normalization, Week 24, 39.5 mg BID, number of patients): 10 | Early Drop or Normal No (lupus nephritis [1]; [8]): 3 | No Week 48 Partial Remission, Early Drop or Normal (lupus nephritis [1]; [8]): 8 | No Week 48 Partial Remission, No Early Drop or Normal (lupus nephritis [1]; [8]): 3 | Early Drop or Normal No (lupus nephritis [1]; [9]): 9 | No Week 48 Partial Remission, Early Drop or Normal (lupus nephritis [1]; [9]): 7 | No Week 48 Partial Remission, No Early Drop or Normal (lupus nephritis [1]; [9]): 9 | Early Drop or Normal No (lupus nephritis [1]; [10]): 2 | No Week 48 Partial Remission, No Early Drop or Normal (lupus nephritis [1]; [10]): 1 | Week 48 Partial Remission, No Early Drop or Normal (lupus nephritis [1]; [10]): 1 | No Week 48 Partial Remission, No Early Drop or Normal (lupus nephritis [1]; [11]): 3 | Week 48 Partial Remission, No Early Drop or Normal (lupus nephritis [1]; [11]): 3 | Early Drop or Normal No (lupus nephritis [1]; [12]): 1 | No Week 48 Partial Remission, No Early Drop or Normal (lupus nephritis [1]; [12]): 1 | Early Drop or Normal No (lupus nephritis [1]; [13]): 9 | No Week 48 Partial Remission, No Early Drop or Normal (lupus nephritis [1]; [13]): 4 | Early Drop or Normal No (lupus nephritis [1]; [14]): 1 | No Week 48 Partial Remission, Early Drop or Normal (lupus nephritis [1]; [14]): 10 | No Week 48 Partial Remission, No Early Drop or Normal (lupus nephritis [1]; [14]): 1 | Early Drop or Normal No (lupus nephritis [1]; [15]): 4 | No Week 48 Partial Remission, No Early Drop or Normal (lupus nephritis [1]; [15]): 4 | Early Drop or Normal No (lupus nephritis [1]; [16]): 3 | No Week 48 Partial Remission, No Early Drop or Normal (lupus nephritis [1]; [16]): 2 | Week 48 Partial Remission, No Early Drop or Normal (lupus nephritis [1]; [16]): 1 | No Week 48 Partial Remission, No Early Drop or Normal (lupus nephritis [1]; [17]): 3 | Week 48 Partial Remission, No Early Drop or Normal (lupus nephritis [1]; [17]): 3 | Early Drop or Normal No (lupus nephritis [1]; [18]): 1 | No Week 48 Partial Remission, No Early Drop or Normal (lupus nephritis [1]; [18]): 1 | Early Drop or Normal No (lupus nephritis [1]; [19]): 9 | No Week 48 Partial Remission, No Early Drop or Normal (lupus nephritis [1]; [19]): 4 | Early Drop or Normal No (lupus nephritis [1]; [20]): 1 | No Week 48 Partial Remission, Early Drop or Normal (lupus nephritis [1]; [20]): 10 | No Week 48 Partial Remission, No Early Drop or Normal (lupus nephritis [1]; [20]): 1 | Early Drop or Normal No (lupus nephritis [1]; [21]): 4 | No Week 48 Partial Remission, No Early Drop or Normal (lupus nephritis [1]; [21]): 4 | remission at reduced dosage (lupus nephritis [2]; dosage lowered to 7.9 mg BID quite early in the treatment): Substantial numbers of subjects showed complete or partial remission | remission at reduced dosage (lupus nephritis [2]; dosage reduced almost immediately to 15.8 mg BID): a substantial portion of subjects showed substantial remission | patients showing complete remission (CR) (lupus nephritis [3]; [22]): 27% | patients showing partial remission (PR) (lupus nephritis [3]; [22]): 66% | patients showing complete remission (CR) (lupus nephritis [3]; [23]): 32.6% | patients showing partial remission (PR) (lupus nephritis [3]; [23]): 70% | subjects showing complete remission (CR) (lupus nephritis [3]; 48 weeks, low dosage 23.7 mg BID with MMF and corticosteroids): 49%

Source: patent US11622991B2, “Protocol for treatment of lupus nephritis” (Aurinia Pharmaceuticals Inc., priority 2017, dated 2023)
